Experiments:
[1] = test system: alloantigen-specific T cells; test: Inhibitory effect on alloantigen-specific T cells in vivo (donor T cells in spleen of irradiated BDF1 mice); design: species or system mouse; conditions: for number of alloantigen-specific T cells in the spleen: compared to vehicle, concentration-dependent
Method: Lymph nodes and spleens were aseptically collected from normal C57BL/6-Ly5.1 mice (8-12 week old, female, 20±2 g), and T cells were isolated in the same manner as described in Experimental Example 2, and were then re-suspended in PBS at a concentration of 1×10^8 cells/mL. Normal BDF1 mice (10-12 week old, female, 20-23 g) were irradiated with 950 rad of γ radiation, and then 100 μL of the above-prepared T cells of C57BL/6-Ly5.1 mice were injected into the tail vein of the BDF1 mice. Compound 229 was completely dissolved in a Cremophor EL (Sigma)/ethanol mixture (1:1, v/v) in an amount corresponding to 15% (v/v) of the administration volume for intraperitoneal administration and in an amount corresponding to 7.5% (v/v) for oral administration, and the compound solution was diluted in PBS. The dilution was administered intraperitoneally (200 μL/mouse) or orally (500 μL/mouse) every day for 5 days from the day of the cell injection. A vehicle control group was administered with a Cremophor EL-ethanol-PBS mixture in the same ratio and volume as those of the test group. At 6 days after the cell injection, the mice were sacrificed, the spleens were collected from the mice, and erythrocyte-free spleen cells were made in the same manner as described in Experimental Example 2. The spleen cells were stained with trypan blue, and the number of viable cells per organ of each animal was counted. Then, the spleen cells were put into 5 mL FACS tubes and washed with 1 mL of FACS buffer. The cells were re-suspended in 0.1 mL of FACS buffer, and then treated with […] of mouse immunoglobulin G in order to prevent the non-specific binding of antibody, followed by incubation at 4° C. for 15 minutes. […] The stained cells were washed twice with 1 mL of FACS buffer, re-suspended in 0.3 mL of FACS buffer and analyzed by a flow cytometer. The number of donor T cells in the spleen was determined by measuring the ratio (%) of a donor T cell fraction (Ly5.1^+ cells) relative to viable cells per spleen.

Molt4 = test: Apoptosis of lymphoid malignancy cell lines: Molt4; format: cell-based; conditions: Homo sapiens, MOLT-4, 24 h, read-out: Administration Dose (mean ± SD, μmol/L) Lethal Dose 50 (Apoptosis)
Method: (§1) Each of the acute T cell leukemia cell lines Jurkat, Molt4 and CCRF-CEM, the acute B cell leukemia cell line Raji and the […] cell lines KMS11, KMS12BM, KMS26, KMS28BM, and IM9 was re-suspended in 10% FBS-containing RPMI medium at a concentration of 1.5×10^5 cells/mL, and 200 μL of each of the cell suspensions was cultured in a flat bottom 96-well plate (Costar). The acute NK cell lymphoma cell line NK-92MI was re-suspended in α-MEM medium (supplemented with 20% FBS, 1×MEM vitamine solution, 50 μM 2-mercaptoethanol and 1× penicillin/streptomycin) at a concentration of 1.5×10^5 cells/mL, and 200 μL of the cell suspension was cultured in a flat bottom 96-well plate. The cells in each well was treated with 10 μL of each of 0.1, 0.25, 0.5, 0.75 and 1 μM of the compound diluted with RPMI medium, followed by that the cells were incubated in a 5% CO2 incubator at 37° C. for 24 hours. In a vehicle control group, cells were treated with 10 μL of medium containing 0.05% dimetylsulfoxide (DMSO, Sigma).
(§2) The cells were collected, and then the apoptosis thereof was analyzed by a flow cytometer after staining with Annexin V-7-AAD. The incubated cells were collected, placed in a 5-mL FACS tube (BD Falcon) and washed with 1 mL of fluorescence activated cell sorting (FACS) buffer (1%. FBS and 0.1% sodium azaide in PBS). The cells were re-suspended in 0.1 mL of FACS buffer, followed by that the cells were treated and stained with phycoerythrin-Annexin V at room temperature for 10 minutes. After 10 minutes of staining, the cells were treated and stained with 7-AAD at room temperature for 5 minutes. The stained cells were suspended in 0.3 mL of FACS buffer, and then analyzed by a flow cytometer. […] Thus, compounds 065, 108, 229 and 457 of the present invention can be used as a novel anti-lymphoid malignancy drug.

IM9 = test: Apoptosis of lymphoid malignancy cell lines: IM9; format: cell-based; conditions: Homo sapiens, IM-9, 24 h, read-out: Administration Dose (mean ± SD, μmol/L) Lethal Dose 50 (Apoptosis)
Method: as §1, §2

KMS26 = test: Apoptosis of lymphoid malignancy cell lines: KMS26; format: cell-based; conditions: KMS-26; KMS26, Multiple myeloma, 24 hours; read-out: Administration Dose (mean ± SD, μmol/L) Lethal Dose 50 (Apoptosis)
Method: as §1, with “In a vehicle control group, cells were treated with 10 μL of medium containing 0.05% dimetylsulfoxide (DMSO, Sigma).” left out
(§3) The cells were collected, and then the apoptosis thereof was analyzed by a flow cytometer after staining with Annexin V-7-AAD. The incubated cells were collected, placed in a 5-mL FACS tube (BD Falcon) and washed with 1 mL of fluorescence activated cell sorting (FACS) buffer (1%. FBS and 0.1% sodium azaide in PBS). […] The stained cells were suspended in 0.3 mL of FACS buffer, and then analyzed by a flow cytometer. […]

KMS28BM = test: Apoptosis of lymphoid malignancy cell lines: KMS28BM; format: cell-based; conditions: KMS-28BM, Multiple myeloma, 24 hours, read-out: Administration Dose (mean ± SD, μmol/L) Lethal Dose 50 (Apoptosis)
Method: as §1, with “In a vehicle control group, cells were treated with 10 μL of medium containing 0.05% dimetylsulfoxide (DMSO, Sigma).” left out
as §3

[2] = Toxicity test, single oral dose in ICR male mice; conditions: mouse, in vivo, read-out: lethal dose 50 (LD50)
Method: To ICR male mice, a suspension of Compound 229 in 0.5% methylcellulose solution was administered orally once by each doses of 10 mg/kg, 50 mg/kg and 100 mg/kg, and the survival rate and body weight of the mice were investigated for 7 days. After such administration, mouse death or not, clinical condition and body weight change were monitored. Hematology test and biochemical examination of blood were carried out.

Question: For `Cc1cc(C)c(OCC(=O)N/N=C/c2ccc3cc[nH]c3c2)c(C2CCOC2)c1` (centres unmarked) [Compound 229, (E)-N′-((1H-indol-6-yl)methylene)-2-(2,4-dimethyl-6-(tetrahydrofuran-3-yl)phenoxy)acetohydrazide], which “number of alloantigen-specific T cells in the spleen” value ([1]; administered intraperitoneally every day for 5 days) is on record?
Answer: significantly decreased

Question: What about the “number of alloantigen-specific T cells in the spleen” value ([1]; administered orally every day for 5 days) of the same compound?
Answer: significantly decreased

Question: And the “proliferation of T cells that responded to the alloantigen in vivo” value ([1]; dose of 50 mg/kg)?
Answer: completely inhibited

Question: What about the EC50 (Molt4) of the same compound?
Answer: 1.3 ± 0.05 µmol/L

Question: What about the EC50 (IM9) of the same compound?
Answer: 0.9 ± 0.03 µmol/L

Question: What about the EC50 (KMS26) of the same compound?
Answer: 1.31 ± 0.35 µmol/L

Question: What about the EC50 (KMS28BM) of the same compound?
Answer: 0.49 ± 0.08 µmol/L

Question: What about the LD50 at 7 days [2] of the same compound?
Answer: 100 mg/kg

— patent publication US9447083B2, “N-acylhydrazone derivatives for selective T cell inhibitor and anti-lymphoid malignancy drug” (CHONG KUN DANG PHARMACEUTICAL CORP., priority 2012, dated 2016)
